Patent publication US11320422B2, “Inhibition of protein degradation for improved production” (LONZA LTD, priority 2016, dated 2022)
Values joined by “and” are separate entries in the source; they are usually repeats but may differ in a detail not shown here. Equal values may be shown once. Where a SMILES comes first, the peptide text is derived from it. The star is where a group is joined. Cbz = O=C(OCc1ccccc1)*

Legend:
[1] = Initial assessment of inhibitor concentrations on recombinant CHO cell line growth (viable cell number, culture viability, ViCell); assay type: cell-based, Chinese hamster; details: Chinese hamster
Procedure: (§1) 96 deep well plates (Nunc) were seeded at 4×10^6 cells/ml at 300 μl per well for analysis of proteasome and ERAD inhibitors. Triplicate wells were prepared for each inhibitor for each of the panel of cell lines. […] 100 μl of the well volume was combined with 900 μl PBS and a cell count performed using the ViCell apparatus. The remaining 200 μl was centrifuged at 1000 rpm for 5 minutes and the supernatant and pellet stored at −20° C. prior to further analysis.
(§2) Initial assessment was performed across two experiments using one model recombinant CHO antibody producing cell line (CH0149) to determine the appropriate concentrations of each inhibitor to use for the assessment of the full panel (FIGS. 1A-1C and 2A-2F).

[2] = test system: recombinant CHO antibody producing cell line (CH0149); assay: as above; assay type: cell-based, Chinese hamster
Procedure: as §1, §2

[3] = test system: CHOK1 GS-KO cells producing antibody A; assay: Cell line construction with MSX plus proteasome inhibitor selection (Example 5), growth and antibody concentration by ELISA / Protein A HPLC; assay type: cell-based, Chinese hamster
Procedure: The electroporation was performed in the GSKO suspension cell line. A count was performed of the culture in mid exponential phase and the remaining culture centrifuged at 1000 rpm and the supernatant removed. 1×10^7 cells were required per electroporation cuvette in a volume of 700 μl. Therefore, the pellet was resuspended to achieve the concentration of cells for the number of electroporations required. Electroporations were performed with 20 μg linearized plasmid at 300 V, a capacitance of 900 μF and using cuvettes with a 4 mm gap. Each cuvette was added to 20 ml of fresh media with 2 ml of that volume used to rinse out the cuvette. For the cell line construction experiment, then all electroporations were pooled together to give a final volume of 300 ml. This was thoroughly mixed and then distributed in 10 ml volumes between 30×T75 tissue culture flasks. The flasks were then incubated statically at 36.5° C. with 5% CO2. 24 hours after the transfection, the glutamine synthetase inhibitor (MSX) was added to provide selection of the cells successfully taking up the plasmid and expressing the selection marker GS. 5 ml volumes of the MSX stocks with CD-CHO media were added to give either a final culture concentration of either 25, 37.5 or 50 μM MSX. The addition of the proteasome inhibitors was then performed at the appropriate time-point following MSX selection as determined by the design of experiments layout detailed in Table 3. Filter sterilized DMSO was added as a control where no drug was required in the combinations. Cultures were then incubated statically at 36.5° C. and 5% CO2 for approximately two weeks following addition of MSX. […] Once a viable cell concentration of at least 0.2×10^6 cells/ml was achieved, the cultures were moved into 20 ml shake flask cultures at 36.5° C. and 5% CO2 with shaking at 140 rpm. From this point onwards routine sub-culture was performed every 3-4 days.
AffiniPure F(ab′)2 fragment goat anti-human IgG Fc fragment specific (minimal cross-reaction to bovine, horse, mouse serum proteins) (Jackson ImmunoResearch Laboratories Inc) was diluted in coating buffer (15 mM Na2CO3 and 35 mM NaHCO3, pH 9.7) to give a concentration of […]. 100 μl of the stock was then used to coat each well of 96 well plate (Nunc). Plates were covered with foil and stored at 4° C. overnight. […] Plates were again washed and ready-made TMB substrate (Cell signalling technology #7004) was added (100 μl/well). […] The optical density of each well was then measured at 450 nm. The concentration of the supernatant samples were then determined from the standard curve of the known concentrations of IgG. […]

[4] = test system: GS KO Lonza host cells expressing cB72.3 monoclonal antibody; assay: Cell line construction with MSX plus proteasome or ERAD inhibitors (Example 6), cB72.3 titre by Octet and western blot; assay type: cell-based, Chinese hamster; details: for monoclonal antibody titre higher than control pool: 31.25 nM MG-132 and 37.5 μM MSX, 168 h of batch culture; for cell specific productivities compared to MSX control pools: MG-132 particularly 31.25 nM, various concentrations of epoxomicin and eeyarestatin
Procedure: Multiple electroporations with 20 μg of linearized GS cB72.3 monoclonal antibody containing construct with 1×10^7 viable GS KO Lonza host cells were performed and pooled. This pool was then set up into 10 ml cultures, each containing approximately 0.25×10^6 cells and 10 μg DNA, and immediately placed in a static incubator at 37° C. with 5% CO2. Cell media consisted of commercially available CD-CHO media without glutamine and the addition of MSX and inhibitors as outlined below. 24 hours post transfection, MSX was added to the media to make the culture volume up to 15 ml and provide a final MSX concentration of 37.5 μM. The different inhibitors were then added to the pools a further 24 hours after the addition of MSX. A range of concentrations were added for each inhibitor to give the final concentrations in the flasks as described in FIG. 13. Only one inhibitor treatment was performed per flask (no combined treatments) and all were performed in combination with 37.5 μM MSX as outlined in FIG. 13.
The cell pools were then left in the static incubator at 37° C. and 5% CO2 until the viable cell concentration in the flask reached ˜0.2×10^6 cells/ml. When this viable cell number was achieved, cell pools were moved into 125 mL Erlenmeyer shake flasks and cultured in a 20 mL volume of CD-CHO including MSX and the appropriate concentration of inhibitor at 37° C. under a 5% CO2 in air environment with shaking at 140 rpm. 24 out of 33 transfections/pools were eventually moved across to shake flasks as they exceeded the required viable cell concentration described above.
Cell pools were then cultured in the presence of the appropriate inhibitor (and inhibitor concentration and 37.5 μM MSX) in 20 mL of CD-CHO for several passages (each being seeded at 0.2×10^6 viable cells/ml) before batch cultures were set up for each to assess the growth of the pool and to sample for product concentration over the duration of culture. For this purpose 20 ml batch cultures (seeded at 0.2×10^6 viable cells/ml) were sampled at 48, 96 and 168 hours for growth and titre information. The cell pools were also then passaged for an additional two passages in the absence of the inhibitors (but containing MSX) to determine if any changes in growth or productivity were observed, i.e. were the improved culture titres only maintained if the inhibitor was continually present.

GS-KO CHO host cell line = assay: Host selection/adaptation in presence of inhibitors, then transient transfection with cB72.3 (Example 8); assay type: cell-based, Chinese hamster
Procedure: In order to ascertain if adapted/selected host cells with the ability to produce enhanced recombinant protein yields and quality could be generated by culturing the Lonza GS-KO CHO host cell line in the presence of the protein degradation inhibitors, the GS-KO host cell line was cultured in the presence of various protein degradation inhibitors for a series of passages. The host cell line was therefore cultured in 20 ml CD-CHO+6 mM glutamine+the appropriate inhibitors as outlined below in 125 ml Erlenmeyer shake flasks at 37° C. under a 5% CO2 in air environment with shaking at 140 rpm. At each passage the new culture was seeded at 0.2×10^6 viable cells/ml. Cells were passaged when the cell number exceeded 1×10^6 viable cells per mL.
However, cells in the presence of this concentration of MG132 were subjected to 4 passages at this concentration and then a further 2 in the absence of the drug. At this time there was sufficient cells for the transfection following passage of the cells without the drug (2nd experiment of the two) to be undertaken.
Transient transfection of the emerging cell host pools described above was then performed via electroporation with 20 μg of the model cB72.3 plasmid and 1×10^7 viable cells and the cells placed in 20 ml of fresh CD-CHO media plus 6 mM glutamine in 125 ml Erlenmeyer shake flasks and cultured at 37° C. under a 5% CO2 in air environment with shaking at 140 rpm. This was undertaken for the host cell pools that had been in the presence of the inhibitors continually and those that had been passaged for an additional two passages in the absence of the inhibitors. Samples were taken from these batch cultures to monitor growth and antibody titre at 48, 96 and 168 hours post-transfection.

apoptosis = details: cited from earlier work
ER translocation = details: in vivo; cited from earlier work
[5] = immediately after treatment with inhibitors
[6] = two passages in the absence of inhibitors
[7] = host initially cultured with Eeyarestatin I or 6.25 nM Epoxomicin, then 2 passages without inhibitor

CC(C)C[C@@H](C=O)NC(=O)[C@H](CC(C)C)NC(=O)[C@H](CC(C)C)NC(=O)OCc1ccccc1 [MG-132, Z-Leu-Leu-Leu-al] (Cbz-Leu-Leu-Leu-aldehyde)
cytotoxicity at 48 h ([1]; 0.5 and 1 μM, 48 hours after addition, compared to control, read-out: decrease in viable cell number): ~40% | cytotoxicity at 0.5 μM ([1]; read-out: reduction of cell concentration and culture viability compared to control): 30 to 60% | effect on culture viability and cell numbers ([2]; 0.1 μM): less of an effect | reduction in the culture viability to ([2]; 0.5 and 1 μM, 48 hours after addition): approximately 50% | cell numbers and culture viability ([2]; 5 and 10 μM, 48 hours after addition): dramatically reduced | increase in the amount of antibody in cell culture supernatant over MSX alone pools ([3]; 0.0625 μM MG-132 and 37.5 μM MSX, 192 hours of batch culture): ~4 fold | viable cell counts following electroporation and cell line construction ([3]; concentrations used in Example 2): poor viable cell counts | monoclonal antibody titre higher than control pool ([4]; cells continually cultured with inhibitor): ~4 fold | monoclonal antibody titre higher than control pool ([4]; two passages in the absence of inhibitor): ~4 fold | final inhibitor concentrations that resulted in the emergence of cell pools ([4]; alongside 37.5 μM MSX): 15.625 nM and 31.25 nM | cell specific productivities compared to MSX control pools [4, 5]: enhanced | cell specific productivities compared to MSX control pools [4, 6]: enhanced | host cell growth in presence of inhibitor (GS-KO CHO host cell line; 125 nM, transfection immediately after culture with drug): not sufficient cells | concentration shown to induce apoptosis (apoptosis): 1.5 µM

CC1(C)C(N(O)C(=O)Nc2ccc(Cl)cc2)N(c2ccc(Cl)cc2)C(=O)N1CC(=O)N/N=C/C=C/c1ccc([N+](=O)[O-])o1 (stereo not shown) [eeyarestatin I]
decrease in viable cell number ([2]; 1 μM, 48 hours after addition, two experiments): 15-30% | effect on the culture viability parameters ([2]; 10 μM, two experiments): consistently showed an effect | cell specific productivities compared to MSX control pools [4, 5]: enhanced | cell specific productivities compared to MSX control pools [4, 6]: enhanced | cell specific productivity and titre (GS-KO CHO host cell line; 0.1 μM in culture media for selection/adaptation of host): increase in cell specific productivity and titre | transient antibody titres versus DMSO control cells (GS-KO CHO host cell line; host cultured with 0.1 μM Eeyarestatin I before transfection): higher transient titres | transient antibody titres versus DMSO control cells (GS-KO CHO host cell line; [7]): higher transient titres | concentration sufficient to block ER translocation (ER translocation): 8 µM

CC[C@H](C)[C@H](NC(=O)[C@H]([C@@H](C)CC)N(C)C(C)=O)C(=O)N[C@H](C(=O)N[C@@H](CC(C)C)C(=O)[C@@]1(C)CO1)[C@@H](C)O [epoxomicin]
decrease in viable cell numbers ([2]; 0.05 μM, 48 hours after addition, two experiments): 30-50% | detrimental effects over time ([2]; 0.01, 0.005 and 0.001 μM): not showing any detrimental effects until 72 hours | viable cell number ([2]; 0.01, 0.005 and 0.001 μM): increase in viable cell number | decrease in viable cell number ([2]; 0.5 and 1 μM, 48 hours after addition, compared to control): 90% | increase in antibody concentration over control pools generated with MSX alone ([3]; 0.025 μM epoxomicin and 37.5 μM MSX, 192 hours of batch culture): 3-7 fold | maximum viable cell number ([3]; pool CLC18 constructed with 0.025 μM epoxomicin and 37.5 μM MSX, batch culture without inhibitor): 5.328×10^6 cells/ml | cell specific productivities compared to MSX control pools [4, 5]: enhanced | cell specific productivities compared to MSX control pools [4, 6]: enhanced | transient antibody titres versus DMSO control cells (GS-KO CHO host cell line; [7]): higher transient titres
